Values of other authors in PubChem BioAssay AID1259409 (Chemical Carcinogenesis Research Information System (CCRIS), 2018).

Test system: rodent chemically induced tumor inhibition, incidence and multiplicity
Test: CCRIS tumor inhibitor studies
Conditions: Route [Inhibitor]: ORAL, Species: RAT

C[C@]12CC[C@H](O)CC1=CC[C@@H]1[C@@H]2CC[C@]2(C)C(=O)CC[C@@H]12
tumour outcome (control, treated, inhibition, significance) (Carcinogen: CYPROTERONE ACETATE [427-51-0], TESTOSTERONE PROPIONATE [57-85-2], N-METHYL-N-NITROSOUREA [684-93-4], Carcinogen: CYPROTERONE ACETATE [427-51-0], TESTOSTERONE PROPIONATE [57-85-2], N-METHYL-N-NITROSOUREA [684-93-4], Dose [Inhibitor]: 1000 MG/KG IN DIET FOR 13 WK BEGINNING 1 WK PRIOR TO MNU DOSE (STUDY DURATION: 14 MONTHS), Strain/Sex: WISTAR-UNILEVER/MALE, Target Tissue: Type of Lesion: PROSTATE AND SEMINAL VESICLE: ADENOCARCINOMA OR CARCINOSARCOMA, Dose [Carcinogen]: 50 MG/KB BW CA BY GAVAGE 1X/D FOR 21 D, 100 MG/KG BW TP SC 1X/D FOR 3 D BEGINNING 1 D POST LAST CA DOSE, 50 MG/KG BW MNU, Dose [Carcinogen]: 50 MG/KB BW CA BY GAVAGE 1X/D FOR 21 D, 100 MG/KG BW TP SC 1X/D FOR 3 D BEGINNING 1 D POST LAST CA DOSE, 50 MG/KG BW MNU, Promoter: TESTOSTERONE (CRYSTALLINE)): 27/32 (84%), 27/34 (79%), 6%, not significant
tumour outcome (control, treated, inhibition, significance) (Carcinogen: CYPROTERONE ACETATE [427-51-0], TESTOSTERONE PROPIONATE [57-85-2], N-METHYL-N-NITROSOUREA [684-93-4], Carcinogen: CYPROTERONE ACETATE [427-51-0], TESTOSTERONE PROPIONATE [57-85-2], N-METHYL-N-NITROSOUREA [684-93-4], Dose [Inhibitor]: 2000 MG/KG IN DIET FOR 13 WK BEGINNING 1 WK PRIOR TO MNU DOSE (STUDY DURATION: 14 MONTHS), Strain/Sex: WISTAR-UNILEVER/MALE, Target Tissue: Type of Lesion: PROSTATE AND SEMINAL VESICLE: ADENOCARCINOMA OR CARCINOSARCOMA, Dose [Carcinogen]: 50 MG/KB BW CA BY GAVAGE 1X/D FOR 21 D, 100 MG/KG BW TP SC 1X/D FOR 3 D BEGINNING 1 D POST LAST CA DOSE, 30 MG/KG BW MNU, Dose [Carcinogen]: 50 MG/KB BW CA BY GAVAGE 1X/D FOR 21 D, 100 MG/KG BW TP SC 1X/D FOR 3 D BEGINNING 1 D POST LAST CA DOSE, 30 MG/KG BW MNU, Promoter: TESTOSTERONE (CRYSTALLINE)): 24/30 (80%), 14/29 (48%), 40%, p<0.05
tumour outcome (control, treated, inhibition, significance) (Carcinogen: CYPROTERONE ACETATE [427-51-0], TESTOSTERONE PROPIONATE [57-85-2], N-METHYL-N-NITROSOUREA [684-93-4], Carcinogen: CYPROTERONE ACETATE [427-51-0], TESTOSTERONE PROPIONATE [57-85-2], N-METHYL-N-NITROSOUREA [684-93-4], Dose [Inhibitor]: 2000 MG/KG IN DIET FOR 13 WK BEGINNING 1 WK PRIOR TO MNU DOSE (STUDY DURATION: 14 MONTHS), Strain/Sex: WISTAR-UNILEVER/MALE, Target Tissue: Type of Lesion: PROSTATE AND SEMINAL VESICLE: ADENOCARCINOMA OR CARCINOSARCOMA, Dose [Carcinogen]: 50 MG/KB BW CA BY GAVAGE 1X/D FOR 21 D, 100 MG/KG BW TP SC 1X/D FOR 3 D BEGINNING 1 D POST LAST CA DOSE, 50 MG/KG BW MNU, Dose [Carcinogen]: 50 MG/KB BW CA BY GAVAGE 1X/D FOR 21 D, 100 MG/KG BW TP SC 1X/D FOR 3 D BEGINNING 1 D POST LAST CA DOSE, 50 MG/KG BW MNU, Promoter: TESTOSTERONE (CRYSTALLINE)): 27/32 (84%), 22/32 (69%), 18%, not significant
tumour outcome (control, treated, inhibition, significance) (Carcinogen: CYPROTERONE ACETATE [427-51-0], TESTOSTERONE PROPIONATE [57-85-2], N-METHYL-N-NITROSOUREA [684-93-4], Carcinogen: CYPROTERONE ACETATE [427-51-0], TESTOSTERONE PROPIONATE [57-85-2], N-METHYL-N-NITROSOUREA [684-93-4], Dose [Inhibitor]: 2000 MG/KG IN DIET FOR 13 WK BEGINNING 20 WK POST MNU DOSE (STUDY DURATION: 14 MONTHS), Strain/Sex: WISTAR-UNILEVER/MALE, Target Tissue: Type of Lesion: PROSTATE AND SEMINAL VESICLE: ADENOCARCINOMA OR CARCINOSARCOMA, Dose [Carcinogen]: 50 MG/KB BW CA BY GAVAGE 1X/D FOR 21 D, 100 MG/KG BW TP SC 1X/D FOR 3 D BEGINNING 1 D POST LAST CA DOSE, 30 MG/KG BW MNU, Dose [Carcinogen]: 50 MG/KB BW CA BY GAVAGE 1X/D FOR 21 D, 100 MG/KG BW TP SC 1X/D FOR 3 D BEGINNING 1 D POST LAST CA DOSE, 30 MG/KG BW MNU, Promoter: TESTOSTERONE (CRYSTALLINE)): 24/30 (80%), 15/30 (50%), 38%, p<0.05
tumour outcome (control, treated, inhibition, significance) (Carcinogen: CYPROTERONE ACETATE [427-51-0], TESTOSTERONE PROPIONATE [57-85-2], N-METHYL-N-NITROSOUREA [684-93-4], Carcinogen: CYPROTERONE ACETATE [427-51-0], TESTOSTERONE PROPIONATE [57-85-2], N-METHYL-N-NITROSOUREA [684-93-4], Dose [Inhibitor]: 2000 MG/KG IN DIET FOR 13 WK BEGINNING 40WK POST MNU DOSE (STUDY DURATION: 14 MONTHS), Strain/Sex: WISTAR-UNILEVER/MALE, Target Tissue: Type of Lesion: PROSTATE AND SEMINAL VESICLE: ADENOCARCINOMA OR CARCINOSARCOMA, Dose [Carcinogen]: 50 MG/KB BW CA BY GAVAGE 1X/D FOR 21 D, 100 MG/KG BW TP SC 1X/D FOR 3 D BEGINNING 1 D POST LAST CA DOSE, 30 MG/KG BW MNU, Dose [Carcinogen]: 50 MG/KB BW CA BY GAVAGE 1X/D FOR 21 D, 100 MG/KG BW TP SC 1X/D FOR 3 D BEGINNING 1 D POST LAST CA DOSE, 30 MG/KG BW MNU, Promoter: TESTOSTERONE (CRYSTALLINE)): 24/30 (80%), 18/30 (60%), 25%, not significant
tumour outcome (control, treated, inhibition, significance) (Carcinogen: DIETHYLNITROSAMINE, 55-18-5, ACETYLAMINOFLUORENE, 53-96-3, Carcinogen: DIETHYLNITROSAMINE, 55-18-5, ACETYLAMINOFLUORENE, 53-96-3, Dose [Inhibitor]: 0, 0.6% IN DIET FOR A MAXIMUM OF 15 WK BEGINNING 15 WK POST INITIATION (STUDY DURATION: 56 WK), Strain/Sex: F344/MALE, Target Tissue: Type of Lesion: LIVER: CARCINOMA, Dose [Carcinogen]: 150 MG/KG DEN ONCE THEN 2 WK LATER 0.02% AAF IN DIET FOR 15 D WITH A PARTIAL HEPATECTOMY MIDWAY THROUGH TREATMENT, Promoter: NONE USED): 8/8 (100%), 1/4 (25%), 75%, not calculated
tumour outcome (control, treated, inhibition, significance) (Carcinogen: DIETHYLNITROSAMINE, 55-18-5, N-METHYL-N-NITROSOUREA, 684-93-5, N-BUTYL-N-(4-HYDROXYBUTYL)NITROSAMINE, 3817-11-6, 1,2-DIM, Carcinogen: DIETHYLNITROSAMINE, 55-18-5, N-METHYL-N-NITROSOUREA, 684-93-5, N-BUTYL-N-(4-HYDROXYBUTYL)NITROSAMINE, 3817-11-6, 1,2-DIM, Dose [Inhibitor]: 0, 0.3% IN DIET FOR 23 WK BEGINNING 1 WK POST CARCINOGEN TREATMENT (STUDY DURATION: 28 WK), Strain/Sex: F344/MALE, Target Tissue: Type of Lesion: LARGE INTESTINE: ADENOMA, Dose [Carcinogen]: 100 MG/KG BW DEN ONCE, 20 MG/KG BW MNU ONCE ON DAYS 6,9, AND 12, 0.05% BBN IN DRINKING WATER FOR FIRST TWO WK, 40 MG/KG, Dose [Carcinogen]: 100 MG/KG BW DEN ONCE, 20 MG/KG BW MNU ONCE ON DAYS 6,9, AND 12, 0.05% BBN IN DRINKING WATER FOR FIRST TWO WK, 40 MG/KG, Promoter: NONE USED): 3/20 (15%), 4/20 (20%), -33%, not significant
